Source: EP0029617A1, “Use of tertiary heterocyclic amines as synergists in pesticides; derivatives of cycloamines” (priority 1979, dated 1981)

System: Kornkäfer (sitophilus granarius L)
Experiment: whole plant or invertebrate
Format: in vivo
Conditions: for mortality at 1000 µg/mL: read-out: Wirksamkeit in % Substanz allein
Protocol: Test von tertiären, heterocyclischen Aminen allein und im Gemisch mit Pyrethroiden an Kornkäfern (sitophilus granarius L)
In Petrischalen mit 15 cm Durchmesser mit talcumbepuderten Seitenwänden, um das Entfliehen der Kornkäfer zu verhindern, wurden jeweils 2 ml der Acetonlösungen einpipettiert und durch vorsichtiges Schwenken der Schalen gleichmäßig auf dem Boden verteilt. Nach dem Abdampfen des Acetons und dem Antrocknen der Beläge wurden in jede Schale 25 Kornkäfer eingezählt. Nach einer Stunde wurde jeweils ein 12,5 cm Rundfilter in die Schalen eingelegt, um den Käfern das Befreien aus der Rückenlage zu ermöglichen, was auf der glatten Glasplatte nicht möglich ist. Die lichtscheuen Käfer verkrochen sich mit Vorliebe unter die Filter und blieben so ständig mit den Wirkstoffbelägen in Kontakt. Alle Versuche liefen mit 3 Wiederholungen. Nach 3 h wurden die toten Käfer ausgezählt.
In der Tabelle 3 ist jeweils der Durchschnitt der Summe der 4 Einzelwerte angegeben. 25 tote Kornkäfer entsprechen dabei einer Wirkung von 100 %. Die Temperaturen betrugen während der Tests im Durchschnitt 19 - 21°C. Der synergistische Faktor berechnet sich analog wie in Beispiel 1 angegeben.
Die zu prüfenden tertiären, heterocyclischen Amine wurden - mit 1 mg Wirkstoff pro ml als Acetonlösungen angesetzt. Sie wurden im Verhältnis 1 : 1 mit Ripcord bzw. Talcord, die mit 0,01 mg Wirkstoff pro ml als Acetonlösung vorlagen, gemischt. Die Einzelkomponenten wurden im Verhältnis 1 : 1 mit Aceton gemischt.
Auch bei diesen Versuchen zeigten die Kontrollversuche stets bei Versuchsende eine Mortalität der Kornkäfer von 0 %.
Die synergistische Wirkung der tertiären, heterocyclischen Amine auf die Pyrethroide ist auch dann noch deutlich, wenn das Amin in wesentlich niederen Aufwandmengen eingesetzt wird, als dies in Beispiel 3 beschrieben wurde. Die Ergebnisse sind in der Tabelle 4 zusammengestellt. Dieser Versuch zeigt auch, daß Amine mit insektiziden Eigenschaften, wenn sie in Konzentrationen unterhalb ihres insektiziden Wirkungsbereiches eingesetzt werden, immer noch gute synergistische Wirkungen im Gemisch mit Pyrethroiden zeigen. Die Versuche wurden wie im Beispiel 3 beschrieben mit Kornkäfern durchgeführt. Es wurden lediglich die Konzentrationen der eingesetzten tertiären, heterocyclischen Amine geändert. Für die Verdünnung Pyrethroid : Amin = 1 : 10 wurde das Amin mit 0,1 mg Wirkstoff/ml Acetonlösung eingesetzt. Für die Verdünnung 1 : 5 mit 0,05 mg Wirkstoff/ml.

[1] = Sitophilus granarius, amine 1 mg/ml in Aceton mixed 1 : 1 with Aceton, 2 ml per dish, 25 weevils, dead counted after 3 h
[2] = amine 1 mg/ml + Ripcord 0,01 mg/ml
[3] = amine 1 mg/ml + Talcord 0,01 mg/ml
[4] = amine 1 mg/ml mixed 1 : 1 with Ripcord 0,01 mg/ml, 3 h
[5] = amine 1 mg/ml mixed 1 : 1 with Talcord 0,01 mg/ml, 3 h
[6] = amine 1 mg/ml in Aceton mixed 1 : 1 with Aceton, 2 ml per dish, 25 weevils, dead counted after 3 h
[7] = sitophilus granarius, in vivo, 3 h
[8] = Pyrethroid : Amin 1 : 10, amine 0,1 mg/ml, 180 min

| Molecule | Synergistischer Faktor bei Ripcord [2] | Synergistischer Faktor bei Talcord [3] | Wirksamkeit in % Substanz +Ripcord [4] | Wirksamkeit in % Substanz +Talcord [5] | Wirksamkeit in % Substanz allein [6] [%] | further results |
| --- | --- | --- | --- | --- | --- | --- |
| C(=Cc1ccccc1)CN1CCOCC1 [N-Cinnamyl-morpholin] | 1,74 | 4,54 | 54,8% | 44,0% |  | mortality at 1000 µg/mL [1]: 0% |
| CC(C)=CCC/C(C)=C\CN1CCCCC1 [cis-8-N-Piperidino-2,6-di-methyl-octadien-(2,6)] | 2,16 | 2,76 | 68,0% | 26,8% | 0 |  |
| C(CCCCCN1CCCCC1)CCCCN1CCCCC1 [1,10-N,N-Di-piperidino-decan] | 2,41 | 6,06 | 76,0% | 58,8% | 0 |  |
| CCCCOCCOCCN1CCCCCC1 [N-(2'-Butoxi-diethylether-(2))-hexamethylenimin] |  |  |  |  |  | Synergistischer Faktor bei Ripcord (in vivo): 2,50; Synergistischer Faktor bei Talcord (in vivo): 3,30; Wirksamkeit in % Substanz +Ripcord [7]: 78,8%; Wirksamkeit in % Substanz +Talcord [7]: 32,0%; Wirksamkeit in % Substanz allein [7]: 0% |
| CCCCCC(C=O)CN1CCCCC1 (centres unmarked) [N-Piperidino-methyl-heptanal] |  |  | 49,2% | 60,0% | 0 | Synergistischer Faktor bei Ripcord (in vivo): 1,56; Synergistischer Faktor bei Talcord (in vivo): 6,19 |
| OCC(CO)(CO)CN1CCCCC1 [N-Piperidino-pentaerythrit] | 1,99 | 3,30 | 62,8% | 32,0% | 0 |  |
| N-Hydrinden-morpholin | 1,40 | 3,17 | 44,0% | 30,8% | 0 |  |
| N-Hydrinden-piperidin | 1,36 | 5,90 | 42,8% | 57,2% | 0 |  |
| CCCCOCCOCCN1CCCC1 [N-1-(2'-Butoxi-diethyl-ether-(2))-pyrrolidin] |  |  |  |  |  | Synergistischer Faktor bei Ripcord (in vivo): 2,47; Wirksamkeit in % Substanz +Ripcord [7]: 78,0%; Wirksamkeit in % Substanz +Talcord [7]: 8,9%; Wirksamkeit in % Substanz allein [7]: 0% |
| C(CCCN1CCCCC1)CCN1CCCCC1 [1,6-N,N-Di-piperidino-hexan] | 2,82 |  | 57,2% | 2,8% | 0 |  |
| CCOC(=O)C(c1ccccc1)C(C(=O)OCC)N1CCCC1 (centres unmarked) [Phenyl-N-pyrrolidin-bern-steinsäure-diethylester] | 2,79 | 2,76 | 88,0% | 26,8% | 0 |  |
| CCCCCCCCCCCN1CCCC1 [N-1-Undecyl-pyrrolidin] |  |  |  |  |  | Synergistischer Faktor bei Ripcord (Pyrethroid : Amin 1 : 10): 3,09; Synergistischer Faktor bei Talcord (Pyrethroid : Amin 1 : 10): 7,42; % Wirkung Substanz +Ripcord [8]: 97,2%; % Wirkung Substanz +Talcord [8]: 72,0%; mortality at 100 µg/mL (Sitophilus granarius, 3 h, amine 0,1 mg/ml (as for Pyrethroid : Amin 1 : 10), read-out: % Wirkung Substanz allein): 0% |
| c1ccc(CN2CCOCC2)cc1 [N-Benzyl-morpholin] | 1,43 | 2,19 | 45,2% | 21,2% |  | mortality at 1000 µg/mL [1]: 0% |
| Oc1cc(CN2CCCCC2)c(O)cc1CN1CCCCC1 [2,5-Bis-(N-piperidino-methyl)-hydrochinon] | 1,78 | 2,47 | 56,0% | 24,0% | 0 |  |
| CCOC(=O)C(c1ccccc1)N1CCCC1 (centres unmarked) [Phenyl-N-pyrrolidin-essigsäure-ethylester] | 2,92 | 2,60 | 92,0% | 25,2% | 0 |  |
| C=CC(C)(CCC=C(C)CCC=C(C)C)N1CCCC1 (centres unmarked) [3-N-pyrrolidino-3,7,11-tri-methyl-1,6,10-dodecatrien] | 3,00 | 3,59 | 94,8% | 34,8% | 0 |  |
| CCCCCCCCCCCCN1CCCCC1C (centres unmarked) [N-1-Dodecyl-2-methyl-piperidin] | 1,49 | 2,06 | 46,8% | 20,0% |  | mortality at 1000 µg/mL [1]: 0% |
| CCCCCCCCCN1CCCCCC1 [N-1-Nonyl-hexamethylenimin] | 1,82 | 4,54 | 97,2% | 84,0% |  | mortality at 1000 µg/mL [1]: 40% |
| CCC(CC)N1CCCC1 [Pentyl-(3)-N-pyrrolidin] | 2,67 | 4,82 | 84,0% | 46,8% | 0 |  |
| COc1cc(C=O)cc(CN2CCCCC2)c1O [3-N-(Piperidino-methyl)-4-hydroxid-5-methoxi-benz-aldehyd] | 2,79 | 4,12 | 88,0% | 40,0% | 0 |  |
| c1cc2c(cc1CN1CCOCC1)OCO2 [N-Piperonyl-morpholin] | 2,32 | 3,84 | 73,2% | 37,2% |  | mortality at 1000 µg/mL [1]: 0% |
| C1CCN(CCOCCOCCN2CCCC2)C1 [1,2-Bis-(2-N-pyrrolidino-ethoxi)-ethan] | 3,17 | 7,13 | 100,0% | 69,2% | 0 |  |
| CCCCCCCCCCCCCN1CCCC1 [N-1-Tridecyl-pyrrolidin] | 1,78 | 2,19 | 78,8% | 44,0% |  | mortality at 1000 µg/mL [1]: 22.8% |
| OCCC(O)N1CCCC1 (centres unmarked) [1-N-Pyrrolidino-propandiol-(1,3)] | 3,17 | 8,12 | 100,0% | 78,8% | 0 |  |
| CCOCCN1CCCCC1 [N-1-Ethoxi-ethyl-(2)-piperidin] | 1,78 |  | 56,0% | 0% | 0 |  |
| CC1(C)C(C=C(Cl)Cl)C1C(=O)OCc1cccc(Oc2ccccc2)c1 (centres unmarked) [Talcord, reference compound] |  |  |  |  |  | Wirksamkeit von Talcord (Talcord alone, 0,01 mg/ml mixed 1 : 1 with Aceton, 3 h): Wirksamkeit von Talcord: 9,7% |
| C1CCCC(N2CCOCC2)CC1 [N-Cycloheptyl-morpholin] | 1,78 | 3,59 | 56,0% | 34,8% |  | mortality at 1000 µg/mL [1]: 0% |
| OC(CCl)CN1CCCCC1 (centres unmarked) [1-N-Piperidino-2-hydroxi-3-chlor-propan] | 1,74 | 5,65 | 54,8% | 54,8% | 0 |  |
| CCOC(=O)C(CC)N1CCCCC1 (centres unmarked) [2-N-Piperidino-buttersäure-ethylester] | 1,94 | 5,36 | 61,2% | 52,0% | 0 |  |
| CCCCC(CC)CN1CCCC1 (centres unmarked) [N-1-(2-Ethyl)-hexyl-pyrrolidin] | 1,78 | 4,24 | 56,0% | 41,2% | 0 |  |
